Measurements: patent US20140221301A1, “COMBINATION TREATMENT FOR CANCER” (priority 2011, published 2014)

How the values were obtained:
[1] = system: bacterial protein synthesis; details: cited from earlier work
[2] = system: Cox-1, Cox-2 (mitochondrially-translated subunits I and II) over Cox-4; assay: Immunoblotting of cytochrome C oxidase subunits in leukemia cells; type: cell-based, human; details: TEX, OCI-AML2, two AML patients; 2.5 μM and 5 μM, 36 and 48 hours
Protocol: FIG. 4. […] (A) Cells from TEX, OCI-AML2 and two primary AML patients were treated with increasing concentrations (2.5 μM and 5 μM) of tigecycline for 36 and 48 hours of tigecycline. Total proteins were extracted and analyzed by western blotting for Cox-1, Cox-2, Cox-4, grp78, XIAP, actin and tubulin. (B) TEX and AML patient cells were treated with increasing concentrations (2.5 μM and 5 μM) of tigecycline. Cox-1, Cox-2, and Cox-4 mRNA expression relative 18S was determined by quantitative RT-PCR. Data is shown as mean±SD. (C) TEX cells were treated with increasing concentrations of tigecycline and chloramphenicol (CAP) for 72 hours. Complex I, II and IV enzyme activity relative to citrate synthase activity was determined as described in materials and methods. (D) Cells from TEX, primary AML patients, and normal donors were treated with increasing concentrations of tigecycline. Mitochondrial membrane potential (ΔΨ) was determined by staining cells with JC-1 dye, and flow cytometry analysis (Red/Green ratio). Reactive oxygen species generation (ROS) was determined by staining with h2-DCFDA and Dihydroethidium (DHE).
Total cell lysates were prepared from cells as described previously^32. […] Protein concentrations were measured by the DC Protein assay. […]

[3] = rat, in vivo, 30 mg/kg/day; cited from earlier work
[4] = system: solid tumour cell lines; assay: Cell growth and viability, MTS assay, solid tumour cell lines; type: cell-based; details: 72 hours
Protocol: FIG. 1. […] (A) TEX and (B) M9-ENL1 cells were plated in 96-well plates and drugs were added to the wells (5 μL per well) for final concentrations of 10 μM (shown) and 1 μM. Cell growth and viability was measured at 48 hours (M9-ENL-1) and 72 hours (TEX) by MTS assay. Cell viability is shown for each compound as a percent of cells treated with DMSO alone. (C) Leukemia, (D) myeloma, and (E) solid tumor cell lines were seeded in 96-well plates and then treated with increasing concentrations of tigecycline. Cell growth and viability was measured at 72 hours by MTS assay. Cell viability is expressed as mean percentage plus or minus SD (n=3) relative to vehicle-treated cells. […] Cell viability was measured at 72 hours by MTS assay. Cell viability is expressed as mean percentage plus or minus SD (n=3) relative to vehicle-treated cells.
Human leukemia (OCI-AML2, HL60, U937) cell lines were maintained in RPMI 1640 medium. Myeloma (LP-1, KMS11, 8226, JJN3, OP-M2) cell lines were maintained in Iscove's media. […]
Cell growth and viability was assessed by the MTS assay (Promega, Madison, Wis.) according to the manufacturer's instructions. Apoptosis and cell death was measured by Annexin V-fluroscein isothiocyanate (FITC; Biovision Research Products, Mountain View, Calif.), propidium iodide staining and flow cytometry according to the manufacturer's instructions and as previously described^30.

[5] = system: TEX cells and primary AML samples; assay: Mitochondrial membrane potential, JC-1, leukemia cells; type: cell-based, human; details: 5 μM, times preceding onset of cell death
Protocol: FIG. 4. Tigecycline decreases mitochondrial Cox-1 protein levels in TEX cells. (A) Cells from TEX, OCI-AML2 and two primary AML patients were treated with increasing concentrations (2.5 μM and 5 μM) of tigecycline for 36 and 48 hours of tigecycline. Total proteins were extracted and analyzed by western blotting for Cox-1, Cox-2, Cox-4, grp78, XIAP, actin and tubulin. (B) TEX and AML patient cells were treated with increasing concentrations (2.5 μM and 5 μM) of tigecycline. Cox-1, Cox-2, and Cox-4 mRNA expression relative 18S was determined by quantitative RT-PCR. Data is shown as mean±SD. […] Complex I, II and IV enzyme activity relative to citrate synthase activity was determined as described in materials and methods. […] Mitochondrial membrane potential (ΔΨ) was determined by staining cells with JC-1 dye, and flow cytometry analysis (Red/Green ratio). Reactive oxygen species generation (ROS) was determined by staining with h2-DCFDA and Dihydroethidium (DHE).
To measure mitochondrial membrane potential, cells were treated with tigecycline similarly as described above and then washed twice with PBS and incubated with 5 μM of 5,5′,6,6′-tetrachloro-1,1′,3,3′-tetraethyl benzimidazolylcarbocyanine iodide (JC-1, Sigma-Aldrich) for 20 minutes at 37° C. Each sample was then washed twice with 1 mL PBS and resuspended in 500 μL PBS prior to being read on a BD FACSCalibur. […]

CN(C)c1cc(NC(=O)CNC(C)(C)C)c(O)c2c1C[C@H]1C[C@H]3[C@H](N(C)C)C(O)=C(C(N)=O)C(=O)[C@@]3(O)C(O)=C1C2=O [tigecycline]
inhibition of bacterial protein synthesis, fold greater than minocycline ([1]; relative to minocycline): 3 fold
inhibition of bacterial protein synthesis, fold greater than tetracycline ([1]; relative to tetracycline): 20 fold
protein level of mitochondrially-translated subunits I and II over nuclear-translated subunit IV [2]: preferential decrease
toxicology findings [3]: reversible anemia, thrombocytopenia, and leucopenia with a hypocellular bone marrow
IC50 [4]: > 10 µM
mitochondrial membrane potential [5]: decreased
